The values below come from ChEMBL document CHEMBL5370608, “Selective and Bioavailable HDAC6 2-(Difluoromethyl)-1,3,4-oxadiazole Substrate Inhibitors and Modeling of Their Bioactivation Mechanism” (J Med Chem, 2023).

The source made the active and inactive calls. No cut-off for these calls is given here.

A short description of series [1]: Volume of distribution at steady state in C57/BI mouse at 1 mg/kg, po or 0.5 mg/kg, iv measured upto 24 hrs by LC-MS/MS analysis. It counts as ADME, organism-based. As to conditions: in vivo.
Series [2] is described as follows: Plasma protein binding in mouse assessed as unbound fraction. The class given is ADME, cell-free.
In series [3] the test system is Sodium-dependent noradrenaline transporter. Put plainly: Inhibition of NET (unknown origin) at 49 uM relative to control. As to conditions: Homo sapiens.
A further series deals with THP-1. Put plainly: Cytotoxicity against human THP-1 cells assessed as reduction in cell viability measured upto 250 uM by alamar blue staining based assay. The class given is functional.
Series [4] addresses 3',5'-cyclic-AMP phosphodiesterase 4D (Homo sapiens) (UniProt Q08499). The series can be described thus: Inhibition of PDE4D (unknown origin) at 64 uM relative to control.
Series [5] addresses T1, Protein deacetylase HDAC6 (Homo sapiens, UniProt Q9UBN7).
T1 sequence (Q9UBN7 whole entry): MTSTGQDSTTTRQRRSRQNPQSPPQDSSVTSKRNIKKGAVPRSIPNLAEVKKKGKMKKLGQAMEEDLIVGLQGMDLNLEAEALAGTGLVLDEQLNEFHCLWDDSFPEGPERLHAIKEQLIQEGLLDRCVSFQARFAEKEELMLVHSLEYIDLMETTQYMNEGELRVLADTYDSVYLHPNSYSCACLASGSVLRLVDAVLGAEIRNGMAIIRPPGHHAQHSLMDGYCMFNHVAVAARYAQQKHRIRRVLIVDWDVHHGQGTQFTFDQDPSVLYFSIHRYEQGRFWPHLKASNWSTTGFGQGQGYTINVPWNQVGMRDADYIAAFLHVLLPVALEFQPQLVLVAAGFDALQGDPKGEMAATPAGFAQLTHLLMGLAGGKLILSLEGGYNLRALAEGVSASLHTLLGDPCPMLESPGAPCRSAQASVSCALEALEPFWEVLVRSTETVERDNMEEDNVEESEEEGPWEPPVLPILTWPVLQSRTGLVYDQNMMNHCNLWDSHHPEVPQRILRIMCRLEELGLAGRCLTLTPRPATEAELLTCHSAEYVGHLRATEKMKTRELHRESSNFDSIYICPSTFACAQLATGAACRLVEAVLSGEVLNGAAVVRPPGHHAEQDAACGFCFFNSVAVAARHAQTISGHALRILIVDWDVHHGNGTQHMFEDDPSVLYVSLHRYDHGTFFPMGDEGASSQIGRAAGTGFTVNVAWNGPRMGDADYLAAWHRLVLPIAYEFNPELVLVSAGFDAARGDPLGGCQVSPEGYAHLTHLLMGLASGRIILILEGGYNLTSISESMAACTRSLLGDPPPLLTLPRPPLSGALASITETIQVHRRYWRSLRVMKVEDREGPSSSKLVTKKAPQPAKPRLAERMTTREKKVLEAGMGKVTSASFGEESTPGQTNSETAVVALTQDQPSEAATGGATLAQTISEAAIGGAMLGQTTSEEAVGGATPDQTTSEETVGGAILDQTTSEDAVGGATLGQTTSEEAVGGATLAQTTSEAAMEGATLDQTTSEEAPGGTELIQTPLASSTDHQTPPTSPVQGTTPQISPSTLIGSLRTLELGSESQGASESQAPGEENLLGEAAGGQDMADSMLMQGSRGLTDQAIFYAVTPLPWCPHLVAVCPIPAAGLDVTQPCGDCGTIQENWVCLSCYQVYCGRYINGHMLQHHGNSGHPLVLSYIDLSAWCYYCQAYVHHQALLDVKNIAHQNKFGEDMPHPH
Put plainly: Inhibition of HDAC6 (unknown origin) incubated for 30 mins.

Series [6] can be described thus: AUC (0 to infinity) in Wistar Han rat at 1 mg/kg, po measured upto 24 hrs by LC-MS/MS analysis. As to conditions: in vivo. It counts as ADME, organism-based. Further details: time < 24 hrs, dose 1 mg/kg, route po.
The nature of series [7]: Half life in Wistar Han rat at 1 mg/kg, po measured upto 24 hrs by LC-MS/MS analysis. It counts as ADME, organism-based. As to conditions: in vivo.
A short description of series [8]: Half life in C57/BI mouse at 1 mg/kg, po measured upto 24 hrs by LC-MS/MS analysis. The settings on record: in vivo. The class given is ADME, organism-based.
Series [9] addresses T1, Protein deacetylase HDAC6. The series can be described thus: Inhibition of HDAC6 (unknown origin) incubated for 20 hrs.
The target in series [10] is GABA-A receptor; anion channel (Homo sapiens) (UniProt P14867+P47870+P18507+P28472+P48169+Q99928+Q9UN88+P34903+O00591+O14764+Q8N1C3+P18505+P78334+P47869+P31644+Q16445). The series can be described thus: Inhibition of GABAA (unknown origin) at 34 uM relative to control. It counts as protein-complex assay.
Series [11] can be described thus: Plasma protein binding in rat assessed as unbound fraction. The class given is ADME, cell-free.
A short description of series [12]: Oral bioavailability in Wistar Han rat at 1 mg/kg measured upto 24 hrs by LC-MS/MS analysis. It counts as ADME, organism-based. The settings on record: in vivo.
Series [13] can be described thus: Half life in Wistar Han rat at 10 mg/kg, po measured upto 24 hrs by LC-MS/MS analysis. The class given is ADME, organism-based. As to conditions: in vivo.
Series [14] in a line: AUC (0 to infinity) in Wistar Han rat at 10 mg/kg, po measured upto 24 hrs by LC-MS/MS analysis. It counts as ADME, organism-based. Further details: dose 10 mg/kg, time < 24 hrs, route po. The settings on record: in vivo.
Series [15] is described as follows: Oral bioavailability in Wistar Han rat at 10 mg/kg measured upto 24 hrs by LC-MS/MS analysis. The class given is ADME, organism-based. The settings on record: in vivo.
Series [16] is described as follows: Oral bioavailability in C57/BI mouse at 10 mg/kg measured upto 24 hrs by LC-MS/MS analysis. It counts as ADME, organism-based. As to conditions: in vivo.
The nature of series [17]: AUC (0 to infinity) in C57/BI mouse at 10 mg/kg, po measured upto 24 hrs by LC-MS/MS analysis. It counts as ADME, organism-based. The settings on record: in vivo. Further details: time < 24 hrs, dose 10 mg/kg, route po.
Series [18] in a line: Clearance in C57/BI mouse at 2 mg/kg, iv measured upto 24 hrs by LC-MS/MS analysis. It counts as ADME, organism-based. The settings on record: in vivo.

Sequence of 3',5'-cyclic-AMP phosphodiesterase 4D (Homo sapiens) (Q08499 whole entry): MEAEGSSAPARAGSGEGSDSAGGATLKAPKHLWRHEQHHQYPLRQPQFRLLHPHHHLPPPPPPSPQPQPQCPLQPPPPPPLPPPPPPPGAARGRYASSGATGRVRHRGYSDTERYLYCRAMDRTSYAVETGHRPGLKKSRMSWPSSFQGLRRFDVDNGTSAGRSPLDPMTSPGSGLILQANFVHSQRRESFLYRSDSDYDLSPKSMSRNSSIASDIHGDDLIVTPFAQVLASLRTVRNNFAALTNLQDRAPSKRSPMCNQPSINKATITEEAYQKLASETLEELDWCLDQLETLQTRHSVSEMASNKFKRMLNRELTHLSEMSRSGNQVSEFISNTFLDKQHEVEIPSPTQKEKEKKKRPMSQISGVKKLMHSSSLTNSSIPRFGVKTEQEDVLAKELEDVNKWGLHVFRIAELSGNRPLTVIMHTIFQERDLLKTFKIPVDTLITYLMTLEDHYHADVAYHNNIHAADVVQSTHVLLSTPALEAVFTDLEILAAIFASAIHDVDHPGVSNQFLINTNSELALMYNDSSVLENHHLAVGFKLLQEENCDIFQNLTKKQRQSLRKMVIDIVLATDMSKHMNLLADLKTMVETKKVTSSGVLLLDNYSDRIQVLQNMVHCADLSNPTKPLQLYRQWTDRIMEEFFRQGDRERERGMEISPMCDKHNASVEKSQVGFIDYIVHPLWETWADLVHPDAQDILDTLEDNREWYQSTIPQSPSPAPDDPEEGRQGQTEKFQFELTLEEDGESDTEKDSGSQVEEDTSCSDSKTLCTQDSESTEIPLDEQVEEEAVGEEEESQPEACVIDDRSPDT

`FC(F)c1nnc(-c2ccc(Cn3nnc(-c4ccccn4)n3)nc2)o1` had a Vdss in series [1] of 0.9 L/kg. In addition, the fraction unbound in series [2] was determined as 0.27; in series [11] it was 0.38. The inhibition result in [3], in series [4] and in [10] was “Active” in each case. Further, the result with THP-1 was inactive. For the same compound, the 50% inhibitory concentration (IC50) in [5] is 27 nM; in series [9] it was 1 nM. Also, the AUC(0-inf) in series [6] worked out at 15 µM·h. Moreover, the half-life in series [7] was 10 h; in [8] it was 5.3 h. For the same compound, the bioavailability in [12] came out at 100%.

For `O=C(NO)c1cnc(NC2(c3ccccc3)CCC(F)(F)CC2)nc1`, the half-life in series [13] was 2.1 h. Also, the AUC(0-inf) in [14] worked out at 0.05 µM·h; in series [17], 0.4 µM·h. Besides, the bioavailability turned out to be 19% in [15] and 12% in series [16]. In [18], this compound registered a clearance of 140 mL/min/kg.
